Measurements published in patent US8741934B2, “Inhibitors of ion channels” (Pfizer Limited, priority 2007, dated 2014).

biological target: T1, hSCN3A sodium channels (Homo sapiens, UniProt Q9NY46); test: hSCN3A electrophysiology, whole-cell patch-clamp or PatchXpress 7000, estimated IC-50 (Table B); assay type: cell-based; conditions: estimated IC-50; hSCN3A cells, whole-cell patch-clamp or PatchXpress 7000; read-out: SCN3A EIC-50
T1 construct: expressed in transfected cells
Method: Human Embryonic Kidney (HEK) cells were transfected with an hSCN3A construct using lipofectamine reagent (Invitrogen), using standard techniques. […] Clones were screened for expression using the whole-cell voltage-clamp technique.
HEK cells stably transfected with hSCN3A were maintained in DMEM medium supplemented with 10% heat-inactivated fetal bovine serum and 400 μg/ml G418 sulfate in an incubator at 37° C. with a humidified atmosphere of 10% CO2. […] For electrophysiological studies, cells were removed from the culture flask by brief trypsinization and replated at low density onto glass cover slips. Cells were typically used for electrophysiological experiments within 24 to 72 h after plating.
All recordings were made at room temperature (22-24° C.) using AXOPATCH 200B amplifiers and PCLAMP software (Axon Instruments, Burlingame, Calif.) or PatchXpress 7000 hardware and associated software (Axon Instruments, Burlingame, Calif.).
Current records were acquired at 20 to 50 KHz and filtered at 5 to 10 KHz.
HEK cells stably transfected with hSCN3A were viewed under Hoffman contrast optics and placed in front of an array of flow pipes emitting either control or compound-containing extracellular solutions. All compounds were dissolved in dimethyl sulfoxide to make 10 mM stock solutions, which were then diluted into extracellular solution to attain the final concentrations desired.
The voltage-dependence of inactivation was determined by applying a series of depolarizing prepulses (8 sec long in 10 mV increments) from a negative holding potential. The voltage was then immediately stepped to 0 mV to assess the magnitude of the sodium current. Currents elicited at 0 mV were plotted as a function of prepulse potential to allow estimation of the voltage midpoint of inactivation (V1/2). Cells were then voltage clamped at the empirically determined V1/2.
Compounds were tested for their ability to inhibit hSCN3A sodium channels by activating the channel with a 20 msec voltage step to 0 mV following an 8 second conditioning prepulse to the empirically determined V1/2 (Table B). Compound effect (% inhibition) was determined by difference in current amplitude before and after application of test compounds. […] Inhibition values <20% and >80% were excluded from the calculation.
In some cases electrophysiological assays were conducted with PatchXpress 7000 hardware and associated software (Molecular Devices Corp) (Table B). All assay buffers and solutions were identical to those used in conventional whole-cell voltage clamp experiments described above. hSCN3A cells were grown as above to 50%-80% confluency and harvested by trypsinization. Trypsinized cells were washed and resuspended in extracellular buffer at a concentration of 1×10^6 cells/ml. The onboard liquid handling facility of the PatchXpress was used for dispensing cells and application of test compounds. Determination of the voltage midpoint of inactivation was as described for conventional whole-cell recordings. Cells were then voltage-clamped to the empirically determined V1/2 and current was activated by a 20 msec voltage step to 0 mV.

T1 sequence (Q9NY46 whole entry): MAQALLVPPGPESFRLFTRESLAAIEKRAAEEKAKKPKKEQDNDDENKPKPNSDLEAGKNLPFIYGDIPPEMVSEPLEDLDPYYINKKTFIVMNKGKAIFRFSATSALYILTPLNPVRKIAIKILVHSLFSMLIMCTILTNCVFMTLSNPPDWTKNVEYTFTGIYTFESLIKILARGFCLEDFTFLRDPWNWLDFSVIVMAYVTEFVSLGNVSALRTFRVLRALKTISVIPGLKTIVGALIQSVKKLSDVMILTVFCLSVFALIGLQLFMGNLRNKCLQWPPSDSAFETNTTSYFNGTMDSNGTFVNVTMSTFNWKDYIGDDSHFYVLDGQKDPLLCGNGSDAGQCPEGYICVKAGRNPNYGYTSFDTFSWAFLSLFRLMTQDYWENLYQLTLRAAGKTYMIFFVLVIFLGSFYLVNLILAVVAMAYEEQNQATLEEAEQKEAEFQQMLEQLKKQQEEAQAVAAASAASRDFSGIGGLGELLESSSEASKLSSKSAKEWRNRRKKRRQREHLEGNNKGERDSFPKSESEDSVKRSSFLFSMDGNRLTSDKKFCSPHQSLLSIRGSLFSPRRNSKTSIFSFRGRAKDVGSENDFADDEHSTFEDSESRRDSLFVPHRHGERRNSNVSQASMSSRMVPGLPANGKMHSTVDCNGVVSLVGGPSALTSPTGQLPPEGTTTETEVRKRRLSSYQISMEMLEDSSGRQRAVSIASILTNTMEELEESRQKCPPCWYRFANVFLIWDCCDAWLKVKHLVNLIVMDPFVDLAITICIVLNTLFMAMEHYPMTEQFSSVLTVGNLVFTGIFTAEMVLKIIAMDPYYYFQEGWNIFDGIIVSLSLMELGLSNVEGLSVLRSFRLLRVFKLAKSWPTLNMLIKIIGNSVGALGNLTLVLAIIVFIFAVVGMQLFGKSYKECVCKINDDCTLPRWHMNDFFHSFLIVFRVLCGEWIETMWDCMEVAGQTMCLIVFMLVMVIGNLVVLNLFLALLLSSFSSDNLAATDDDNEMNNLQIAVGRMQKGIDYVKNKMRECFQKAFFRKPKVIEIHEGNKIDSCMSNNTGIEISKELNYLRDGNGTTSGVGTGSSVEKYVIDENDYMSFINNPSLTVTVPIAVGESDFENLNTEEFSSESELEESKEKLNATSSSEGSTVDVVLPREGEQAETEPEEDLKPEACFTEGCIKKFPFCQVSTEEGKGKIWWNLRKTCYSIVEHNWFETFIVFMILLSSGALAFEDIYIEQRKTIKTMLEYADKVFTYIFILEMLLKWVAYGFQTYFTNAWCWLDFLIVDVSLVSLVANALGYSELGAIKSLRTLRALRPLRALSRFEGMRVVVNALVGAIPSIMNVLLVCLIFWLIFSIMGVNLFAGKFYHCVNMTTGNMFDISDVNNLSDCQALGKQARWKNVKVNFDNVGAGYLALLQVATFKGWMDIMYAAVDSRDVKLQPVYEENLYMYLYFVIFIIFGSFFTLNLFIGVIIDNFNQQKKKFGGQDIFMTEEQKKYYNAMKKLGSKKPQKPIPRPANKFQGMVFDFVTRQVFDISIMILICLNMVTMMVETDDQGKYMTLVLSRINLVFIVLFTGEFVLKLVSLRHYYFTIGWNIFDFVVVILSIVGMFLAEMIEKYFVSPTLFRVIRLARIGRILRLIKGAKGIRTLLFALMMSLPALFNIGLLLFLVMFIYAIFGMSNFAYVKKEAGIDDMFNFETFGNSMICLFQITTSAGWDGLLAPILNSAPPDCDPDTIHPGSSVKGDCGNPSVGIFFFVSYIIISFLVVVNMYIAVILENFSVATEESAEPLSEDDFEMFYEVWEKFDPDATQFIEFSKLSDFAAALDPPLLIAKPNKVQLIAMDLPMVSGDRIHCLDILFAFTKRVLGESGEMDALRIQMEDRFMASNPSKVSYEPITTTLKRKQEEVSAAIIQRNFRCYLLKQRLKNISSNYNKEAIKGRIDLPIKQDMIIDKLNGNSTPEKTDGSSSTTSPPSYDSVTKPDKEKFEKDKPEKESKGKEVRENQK

Compound	IC50 [nM]
N#Cc1ccc(CNC(=O)c2ccc(S(=O)(=O)Nc3nccs3)cc2)cc1 [Example 416, N-(4-cyanobenzyl)-4-[(1,3-thiazol-2-ylamino)sulfonyl] benzamide]	860
O=C(NCc1ccc(F)c(Cl)c1)c1ccc(S(=O)(=O)Nc2nccs2)cc1 [Example 401, N-(3-chloro-4-fluorobenzyl)-4-[(1,3-thiazol-2-ylamino)sulfonyl] benzamide]	170
O=C(NCCc1cccc(C(F)(F)F)c1)c1ccc(S(=O)(=O)Nc2nccs2)cc1 [Example 74, 4-[(1,3-Thiazol-2-ylamino)sulfonyl]-N-{2-[3-(trifluoromethyl)phenyl]ethyl}benzamide]	540
O=C(NCCc1cccc(F)c1)c1ccc(S(=O)(=O)Nc2nccs2)cc1 [Example 75, N-[2-(3-fluorophenyl)ethyl]-4-[(1,3-thiazol-2-ylamino)sulfonyl]benzamide]	> 300
Cc1cnc(NS(=O)(=O)c2ccc(C(=O)NCc3ccc(C(F)(F)F)cc3)cc2)s1 [Example 22, 4-{[(5-methyl-1,3-thiazol-2-yl)amino]sulfonyl}-N-[4-(trifluoromethyl)benzyl] benzamide]	950
O=C(c1ccc(S(=O)(=O)Nc2nccs2)cc1)N1CCCC1Cc1cccc(Cl)c1 (stereo not drawn) [Example 279, 4-{[2-(3-Chlorobenzyl)pyrrolidin-1-yl]carbonyl}-N-1,3-thiazol-2-yl-benzenesulfonamide]	2200
O=C(NCc1ccc(OC(F)(F)F)cc1)c1ccc(S(=O)(=O)Nc2nccs2)c(Cl)c1 [Example 284, 3-Chloro-4-[(1,3-thiazol-2-ylamino)sulfonyl]-N-[4-(trifluoromethoxy)benzyl]benzamide]	1220
O=C(NCc1cccc(C(F)(F)F)c1F)c1ccc(S(=O)(=O)Nc2nccs2)cc1 [Example 392, N-[2-fluoro-3-(trifluoromethyl)benzyl]-4-[(1,3-thiazol-2-ylamino)sulfonyl]benzamide]	230
O=C(NCc1ccc(OC(F)(F)F)c(F)c1)c1ccc(S(=O)(=O)Nc2ncc(Cl)s2)c(Cl)c1 [Example 365, 3-Chloro-4-{[(5-chloro-1,3-thiazol-2-yl)amino]sulfonyl}-N-[3-fluoro-4-(trifluoromethoxy)benzyl]benzamide]	600
COc1cccc(CNC(=O)c2ccc(S(=O)(=O)Nc3nccs3)cc2)c1 [Example 170, N-(3-methoxybenzyl)-4-[(1,3-thiazol-2-ylamino)sulfonyl]benzamide]	3920
O=C(NCc1ccc(C(F)(F)F)cc1)c1ccc(S(=O)(=O)Nc2cnoc2)cc1 [Example 23, 4-[(Isoxazol-4-ylamino)sulfonyl]-N-[4-(trifluoromethyl)benzyl]benzamide]	23300
O=C(c1ccc(S(=O)(=O)Nc2nccs2)cc1)N1CCCC(Oc2ccccc2)C1 (stereo not drawn) [Example 277, 4-[(3-Phenoxypiperidin-1-yl)carbonyl]-N-1,3-thiazol-2-yl-benzenesulfonamide]	2190
O=C(NCc1cccc(OC(F)(F)F)c1)c1ccc(S(=O)(=O)Nc2ncc(Cl)s2)cc1F [Example 357, 4-{[(5-Chloro-1,3-thiazol-2-yl)amino]sulfonyl}-2-fluoro-N-[3-(trifluoromethoxy)benzyl]benzamide]	190
Cc1cccc(OC2CCCN(C(=O)c3ccc(S(=O)(=O)Nc4nccs4)cc3)C2)c1 (stereo not drawn) [Example 51, 4-{[3-(3-Methylphenoxy)piperidin-1-yl]carbonyl}-N-1,3-thiazol-2-ylbenzenesulfonamide]	6580
O=C(NCc1ccc(OC(F)(F)F)c(F)c1)c1ccc(S(=O)(=O)Nc2ncc(Cl)s2)cc1Cl [Example 337, 2-Chloro-4-{[(5-chloro-1,3-thiazol-2-yl)amino]sulfonyl}-N-[3-fluoro-4-(trifluoromethoxy)benzyl]benzamide]	390
O=C(NCCc1ccc(C(F)(F)F)cc1)c1ccc(S(=O)(=O)Nc2nccs2)cc1 [Example 101, 4-[(1,3-Thiazol-2-ylamino)sulfonyl]-N-{2-[4-(trifluoromethyl)phenyl]ethyl}benzamide]	570
O=C(NCCc1ccccc1Cl)c1ccc(S(=O)(=O)Nc2nccs2)cc1 [Example 96, N-[2-(2-chlorophenyl)ethyl]-4-[(1,3-thiazol-2-ylamino)sulfonyl]benzamide]	910

Compound	IC50 [nM]
O=C(c1ccc(S(=O)(=O)Nc2nccs2)cc1)N1CCC(O)(c2cccc(F)c2)CC1 [Example 220, 4-{[4-(3-Fluorophenyl)-4-hydroxypiperidin-1-yl]carbonyl}-N-1,3-thiazol-2-yl-benzenesulfonamide]	> 1000
O=C(NCc1ccc(C(F)(F)F)cc1)c1ccc(S(=O)(=O)Nc2ncc(Cl)s2)c(F)c1 [Example 315, 4-{[(5-Chloro-1,3-thiazol-2-yl)amino]sulfonyl}-3-fluoro-N-[4-(trifluoromethyl)benzyl] benzamide]	110
O=C(NCc1ccc(C(F)(F)F)cc1)c1ccc(S(=O)(=O)Nc2cscn2)cc1 [Example 13, 4-[(1,3-Thiazol-4-ylamino)sulfonyl]-N-[4-(trifluoromethyl)benyzyl]benzamide]	680
O=C(NCc1ccc(F)c(F)c1)c1ccc(S(=O)(=O)Nc2ncc(Cl)s2)c(Cl)c1 [Example 371, 3-Chloro-4-{[(5-chloro-1,3-thiazol-2-yl)amino]sulfonyl}-N-(3,4-difluorobenzyl) benzamide]	1300
CC(CNC(=O)c1ccc(S(=O)(=O)Nc2nccs2)cc1)c1ccc(Cl)cc1 (stereo not drawn) [Example 133, N-[2-(4-chlorophenyl)propyl]-4-[(1,3-thiazol-2-ylamino)sulfonyl]benzamide]	1150
CC(NC(=O)c1ccc(S(=O)(=O)Nc2nccs2)cc1)c1ccc(C(F)(F)F)cc1 (stereo not drawn) [Example 118, 4-[(1,3-Thiazol-2-ylamino)sulfonyl]-N-{1-[4-(trifluoromethyl)phenyl]ethyl}benzamide]	760
COc1cccc(CC2CCCN(C(=O)c3ccc(S(=O)(=O)Nc4nccs4)cc3)C2)c1 (stereo not drawn) [Example 263, 4-{[3-(3-Methoxybenzyl)piperidin-1-yl]carbonyl}-N-1,3-thiazol-2-yl-benzenesulfonamide]	1130
Cn1cnc(NS(=O)(=O)c2ccc(C(=O)NCc3ccc(C(F)(F)F)cc3)cc2)n1 [Example 9, 4-{[(1-Methyl-1H-1,2,4-triazol-3-yl)amino]sulfonyl}-N-[4-(trifluoromethyl)benzyl]benzamide]	> 10000
O=C(NCc1cc(F)cc(F)c1F)c1ccc(S(=O)(=O)Nc2nccs2)cc1 [Example 65, 4-[(1,3-Thiazol-2-ylamino)sulfonyl]-N-(2,3,5-trifluorobenzyl)benzamide]	3840
O=C(NCc1ccc(OC(F)(F)F)c(F)c1)c1ccc(S(=O)(=O)Nc2nccs2)c(F)c1 [Example 305, 3-Fluoro-N-[3-fluoro-4-(trifluoromethoxy)benzyl]-4-[(1,3-thiazol-2-ylamino)sulfonyl]benzamide]	60
O=C(NCc1ccc(OC(F)(F)F)cc1)c1ccc(S(=O)(=O)Nc2nccs2)c(F)c1 [Example 301, 3-Fluoro-4-[(1,3-thiazol-2-ylamino)sulfonyl]-N-[4-(trifluoromethoxy)benzyl]benzamide]	180
COc1ccccc1CCNC(=O)c1ccc(S(=O)(=O)Nc2nccs2)cc1 [Example 165, N-[2-(2-methoxyphenyl)ethyl]-4-[(1,3-thiazol-2-ylamino)sulfonyl]benzamide]	4180
O=C(NCc1ccc(OC(F)(F)F)cc1)c1ccc(S(=O)(=O)Nc2ncc(Cl)s2)c(F)c1 [Example 314, 4-{[(5-Chloro-1,3-thiazol-2-yl)amino]sulfonyl}-3-fluoro-N-[4-(trifluoromethoxy)benzyl]benzamide]	70
C[C@H]1CN(C(=O)c2ccc(S(=O)(=O)Nc3nccs3)cc2)C[C@@H]1COc1ccccc1 [Example 49, 4-{[(3R,4R)-3-methyl-4-(phenoxymethyl)pyrrolidin-1-yl]carbonyl}-N-1,3-thiazol-2-ylbenzenesulfonamide]	1150
O=C(NCCNc1ccc(Cl)cc1)c1ccc(S(=O)(=O)Nc2nccs2)cc1 [Example 385, N-{2-[(4-chlorophenyl)amino]ethyl}-4-[(1,3-thiazol-2-ylamino)sulfonyl]benzamide]	780
O=C(NCc1ccc(C(F)(F)F)c(Cl)c1)c1ccc(S(=O)(=O)Nc2nccs2)cc1 [Example 396, N-[3-chloro-4-(trifluoromethyl)benzyl]-4-[(1,3-thiazol-2-ylamino)sulfonyl] benzamide]	30
